The text below walks through data of patent US9895352B2, “Indolinone compounds and uses thereof” (Oncternal Therapeutics, Inc., priority 2014, dated 2018).

The subject of series [1] is SKES cells (Ewing Sarcoma cell line). Nature of the series: CCK-8 tetrazolium tumor cell growth inhibition, SKES. Type of series: cell-based. The following applies: Homo sapiens. As to the method: A modified tetrazolium salt assay using the CCK-8 kit (Sigma-Aldrich; St Louis, Mo.) was used to measure the inhibition of human tumor cell growth. Tumor cells (5000-7500 per well) were added to 96 well plates and allowed to attach for 4-5 hours. Compounds were serially diluted and added in triplicate at a concentration of 0.02 to 5 μM. DMSO was included as a vehicle control. Cells were incubated in the presence of compound for 3 days. After incubation CCK-8 reagent was added to each well and incubated for 2-4 hours. Viable cells were quantitated spectrophotometrically at a wavelength of 450 nm. Percent viability of each sample was calculated from the A450 values as follows: % viability=(A450 nm sample/A450 nm DMSO-treated cells×100). […] IC50 activities of particular compounds were determined using SKES cells (Ewing Sarcoma cell line).

The conditions of series [2]: human liver microsome, no cofactor, 60 min.
The conditions of series [3]: rat liver microsome, no cofactor, 60 min.
The conditions of series [4]: mouse liver microsome, no cofactor, 60 min. On the technique in general: Microsomes from liver hold many membrane-bound enzymes, among them those of drug oxidation.
For series [5] the following is noted: dog liver microsome, no cofactor, 60 min.
A short description of series [6]: Pharmacokinetics after IV and oral administration. It counts as in vivo. The following applies: BALB/c mice or Sprague Dawley rats. The procedure: Certain pharmacokinetics parameters were determined for certain compounds in vivo for intravenous and oral administration. Briefly, compounds were formulated and administered using IV bolus, continuous IV infusion or oral administration. Blood was collected at multiple time points over 24 hours and processed into plasma. Plasma was analyses for parent using LC/MS/MS. Certain parameters for certain compounds were obtained in duplicate.

Setting [7] is: 72 h, SKES cells, 3 days with compound, CCK-8 (TABLE 3).
[8] abbreviates: 20 mg/kg po, labrasol/tetraglycol 9:1.
The mark [9] stands for this setting: 20 mg/kg po, labrasol:tetraglycol:water 72:8:20.
Where [10] appears, read: plasma, iv, 5 mg/kg, 5 mg/kg IV, captisol.
Setting [11] is: plasma, po, 20 mg/kg, 20 mg/kg po, labrasol/tetraglycol 9:1.
The mark [12] stands for this setting: plasma, po, 20 mg/kg, 20 mg/kg po, labrasol:tetraglycol:water 72:8:20.

pIC50: −log10 of the molar value. Several values for one entry are separate records, joined by “and”; a condition that tells them apart may be missing. Equal values may be shown once. Read-outs that look alike come from different tables or passages of the source. Bounds are passed on as bounds.

With `CS(=O)(=O)c1ccc(C(=O)CC2(O)C(=O)Nc3c(Cl)ccc(Cl)c32)cc1` (racemic) [Cmpd 4, 4,7-Dichloro-3-hydroxy-3-(2-(4-(methylsulfonyl)phenyl)-2-oxoethyl)indolin-2-one], the pIC50 (commonly the negative decadic logarithm of the IC50, by convention in mol/L) in series [1] (setting [7]) was less than 5.30; in series [1] (SKES, ES, EWS-FLI1 Type 2) it was less than 5.30.

`O=C(CC1(O)C(=O)Nc2c(Cl)ccc(Cl)c21)c1ccc(N2CC2)cc1` (racemic) [Cmpd 8, 3-(2-(4-(Aziridin-1-yl)phenyl)-2-oxoethyl)-4,7-dichloro-3-hydroxyindolin-2-one]: the pIC50 was more than 5.30 in series [1] (setting [7]) and more than 5.30 in series [1] (SKES, ES, EWS-FLI1 Type 2).

Regarding `CC(C)c1ccc(C(=O)CC2(O)C(=O)Nc3c(Cl)ccc(Cl)c32)cc1` (racemic) [Cmpd 9, 4,7-Dichloro-3-hydroxy-3-(2-(4-isopropylphenyl)-2-oxoethyl)indolin-2-one], the pIC50 is less than 5.30 in series [1] (setting [7]) and less than 5.30 in series [1] (SKES, ES, EWS-FLI1 Type 2).

Turning to `O=C(CC1(O)C(=O)Nc2c(Cl)ccc(Cl)c21)c1ccc(-n2cccn2)cc1` (racemic) [Cmpd 16, 3-(2-(4-(1H-Pyrazol-1-yl)phenyl)-2-oxoethyl)-4,7-dichloro-3-hydroxyindolin-2-one], the negative-log IC50 (pIC50) in series [1] (setting [7]) is less than 5.30; in series [1] (SKES, ES, EWS-FLI1 Type 2), less than 5.30.

As to `NS(=O)(=O)c1ccc(C(=O)CC2(O)C(=O)Nc3c(Cl)ccc(Cl)c32)cc1` (racemic) [Cmpd 20, 4-(2-(4,7-Dichloro-3-hydroxy-2-oxoindolin-3-yl)acetyl)benzenesulfonamide], the pIC50 was less than 5.30 in series [1] (setting [7]) and less than 5.30 in series [1] (SKES, ES, EWS-FLI1 Type 2).

Regarding `O=C(CC1(O)C(=O)Nc2c(Cl)ccc(Cl)c21)c1ccc(N2CCCC2)c(F)c1` (racemic) [Cmpd 21, 4,7-Dichloro-3-(2-(3-fluoro-4-(pyrrolidin-1-yl)phenyl)-2-oxoethyl)-3-hydroxyindolin-2-one], the pIC50 in series [1] (setting [7]) is less than 5.30; in series [1] (SKES, ES, EWS-FLI1 Type 2), less than 5.30.

Regarding `O=C(CC1(O)C(=O)Nc2c(Cl)ccc(Cl)c21)c1ccc(N2CCC2)cc1` (racemic) [Cmpd 22, 3-(2-(4-(Azetidin-1-yl)phenyl)-2-oxoethyl)-4,7-dichloro-3-hydroxyindolin-2-one], the negative logarithm of the IC50 (pIC50) in series [1] (setting [7]) was more than 5.30; in series [1] (SKES, ES, EWS-FLI1 Type 2) it was more than 5.30.

`COC1CCC(C(=O)CC2(O)C(=O)Nc3c(Cl)ccc(Cl)c32)CC1` (racemic) [Cmpd 23, 4,7-Dichloro-3-hydroxy-3-(2-(4-methoxycyclohexyl)-2-oxoethyl)indolin-2-one]: the pIC50 is less than 5.30 in series [1] (setting [7]) and less than 5.30 in series [1] (SKES, ES, EWS-FLI1 Type 2).

Regarding `COC12CCC(C(=O)CC3(O)C(=O)Nc4c(Cl)ccc(Cl)c43)(CC1)CC2` (racemic) [Cmpd 24, 4,7-Dichloro-3-hydroxy-3-(2-(4-methoxybicyclo[2.2.2]octan-1-yl)-2-oxoethyl)indolin-2-one], the pIC50 in series [1] (setting [7]) was less than 5.30; in series [1] (SKES, ES, EWS-FLI1 Type 2), less than 5.30.

For `CN(C)C12CCC(C(=O)CC3(O)C(=O)Nc4c(Cl)ccc(Cl)c43)(CC1)CC2` (racemic) [Cmpd 25, 4,7-Dichloro-3-(2-(4-(dimethylamino)bicyclo[2.2.2]octan-1-yl)-2-oxoethyl)-3-hydroxyindolin-2-one], the pIC50 in series [1] (setting [7]) was less than 5.30; in series [1] (SKES, ES, EWS-FLI1 Type 2), less than 5.30.

With `O=C(CC1(O)C(=O)Nc2c(Cl)ccc(Cl)c21)c1ccc(C2CC2)c(F)c1` (racemic) [Cmpd 26, 4,7-Dichloro-3-(2-(4-cyclopropyl-3-fluorophenyl)-2-oxoethyl)-3-hydroxyindolin-2-one], the negative logarithm of the IC50 (pIC50) in series [1] (setting [7]) is more than 5.30; in series [1] (SKES, ES, EWS-FLI1 Type 2), more than 5.30.

With `O=C(CC1(O)C(=O)Nc2c(Cl)ccc(Cl)c21)c1ccc(C2CC2)cc1F` (racemic) [Cmpd 27, 4,7-Dichloro-3-(2-(4-cyclopropyl-2-fluorophenyl)-2-oxoethyl)-3-hydroxyindolin-2-one], the pIC50 in series [1] (setting [7]) was more than 5.30; in series [1] (SKES, ES, EWS-FLI1 Type 2), more than 5.30.

In the case of `O=C(CC1(O)C(=O)Nc2c(Cl)ccc(Cl)c21)c1ccc(N2CCOCC2)cc1` (racemic) [Cmpd 29, 4,7-dichloro-3-hydroxy-3-(2-(4-moprholinophenyl)-2-oxoethyl)indolin-2-one], the pIC50 is less than 5.30 in series [1] (setting [7]) and less than 5.30 in series [1] (SKES, ES, EWS-FLI1 Type 2).

With `O=C(CC1(O)C(=O)Nc2c(Cl)ccc(Cl)c21)c1ccncc1` (racemic) [Cmpd 30, 4,7-dichloro-3-hydroxy-3-(2-oxo-2-(pyridin-4-yl)ethyl)indolin-2-one], the pIC50 in series [1] (setting [7]) was less than 5.30; in series [1] (SKES, ES, EWS-FLI1 Type 2) it was less than 5.30.

In the case of `O=C(CC1(O)C(=O)Nc2c(Cl)ccc(Cl)c21)c1cccnc1` (racemic) [Cmpd 31, 4,7-dichloro-3-hydroxy-3-(2-oxo-2-(pyridin-3-yl)ethyl)indolin-2-one], the pIC50 is less than 5.30 in series [1] (setting [7]) and less than 5.30 in series [1] (SKES, ES, EWS-FLI1 Type 2).

Take `O=C(CC1(O)C(=O)Nc2c(Cl)ccc(Cl)c21)c1ccccn1` (racemic) [Cmpd 32, 4,7-dichloro-3-hydroxy-3-(2-oxo-2-(pyridin-2-yl)ethyl)indolin-2-one]: the pIC50 is less than 5.30 in series [1] (setting [7]) and less than 5.30 in series [1] (SKES, ES, EWS-FLI1 Type 2).

For `NC(=O)c1ccc(C(=O)CC2(O)C(=O)Nc3c(Cl)ccc(Cl)c32)cc1` (racemic) [Cmpd 33, 4-(2-(4,7-dichloro-3-hydroxy-2-oxoindolin-3-yl)acetyl)benzamide], the pIC50 is less than 5.30 in series [1] (setting [7]) and less than 5.30 in series [1] (SKES, ES, EWS-FLI1 Type 2).

On to `O=C(CC1(O)C(=O)Nc2c(Cl)ccc(Cl)c21)c1ccc(O)cc1` (racemic) [Cmpd 34, 4,7-dichloro-3-hydroxy-3-(2-(4-hydroxyphenyl)-2-oxoethyl)indolin-2-one], for which the pIC50 in series [1] (setting [7]) is less than 5.30; in series [1] (SKES, ES, EWS-FLI1 Type 2), less than 5.30.

`O=C(CC1(O)C(=O)Nc2c(Cl)ccc(Cl)c21)c1ccc(F)c(F)c1` (racemic) [Cmpd 35, 4,7-dichloro-3-(2-(3,4-difluorophenyl)-2-oxoethyl)-3-hydroxyindolin-2-one]: the pIC50 in series [1] (setting [7]) is less than 5.30; in series [1] (SKES, ES, EWS-FLI1 Type 2), less than 5.30.

With `COc1ccc(C(=O)CC2(O)C(=O)Nc3c(Cl)ccc(Cl)c32)cc1` (single isomer, unassigned) [Cmpd 3, 4,7-Dichloro-3-hydroxy-3-[2-(4-methoxyphenyl-2-oxoethyl)]-1,3-dihydroindol-2-one], the “Remaining (NCF = 60 min)” value in series [2] was 112.6%; in series [3], 92.6%; in series [4], 97.5%; in series [5] it was 100.1%.

With `CNc1ccc(C(=O)CC2(O)C(=O)Nc3c(Cl)ccc(Cl)c32)cc1` (single isomer, unassigned) [Cmpd 5, 4,7-dichloro-3-hydroxy-3-[2-[4-(methylamino)phenyl]-2-oxoethyl]-1H-indol-2-one], the AUC in series [6] (5 mg/kg IV, captisol) was 2324 h * (ng/mL) and 3207 h * (ng/mL); in series [6] (setting [8]) it was 5192 h * (ng/mL) and 4939 h * (ng/mL); in series [6] (setting [9]), 4354 h * (ng/mL) and 4081 h * (ng/mL). In addition, the Tmax (commonly the time at which the peak concentration occurs) was found to be 0.5 h in series [6] (setting [8]); 0.5 h in series [6] (setting [9]); 0.033 h in series [6] (plasma, iv, 5 mg/kg, 5 mg/kg IV, captisol, read-out: Tmax); 1 h in series [6] (plasma, po, 20 mg/kg, 20 mg/kg po, labrasol/tetraglycol 9:1, read-out: Tmax); 1 h in series [6] (plasma, po, 20 mg/kg, 20 mg/kg po, labrasol:tetraglycol:water 72:8:20, read-out: Tmax). Also, in series [6] (setting [9]), the “% F” value is 39%. In addition, the Cmax (as a rule, the peak of the concentration-time curve) in series [6] (setting [10]) came to 13000 ng/mL; in series [6] (setting [11]), 2180 ng/mL; in series [6] (setting [12]), 1570 ng/mL. The half-life (in general, how long it takes for the measured level to halve) in series [6] (setting [10]) was 1.7 h; in series [6] (setting [11]), 3.1 h; in series [6] (setting [12]), 2.8 h. Besides, the values for the bioavailability in series [6] (setting [11]) and in series [6] (setting [12]) were 56% and 47%, respectively.

As for `O=C(CC1(O)C(=O)Nc2c(Cl)ccc(Cl)c21)c1ccc(C2CC2)c(F)c1` (single isomer, unassigned) [Cmpd 36, 4,7-Dichloro-3-(2-(4-cyclopropyl-3-fluorophenyl)-2-oxoethyl)-3-hydroxyindolin-2-one], in series [2], the “Remaining (NCF = 60 min)” value is 104.0%.

For the molecule `O=C(CC1(O)C(=O)Nc2c(Cl)ccc(Cl)c21)c1ccc(C2CC2)cc1F` (single isomer, unassigned) [Cmpd 38, 4,7-Dichloro-3-(2-(4-cyclopropyl-2-fluorophenyl)-2-oxoethyl)-3-hydroxyindolin-2-one], the “Remaining (NCF = 60 min)” value in series [2] came out at 99.5%.

On to `O=C(CC1(O)C(=O)Nc2c(Cl)ccc(Cl)c21)c1ccc(N2CCCC2)cc1` (stereo not drawn) [Cmpd 17, 4,7-Dichloro-3-hydroxy-3-(2-oxo-2-(4-(pyrrolidin-1-yl)phenyl)ethyl)indolin-2-one], for which the pIC50 in series [1] (setting [7]) was less than 5.30; in series [1] (SKES, ES, EWS-FLI1 Type 2), less than 5.30.
